From patent US20090281184A1, “PHARMACEUTICAL FOR PREVENTION AND TREATMENT OF OPHTHALMIC DISEASE INDUCED BY IN-CREASE IN VASOPERMEABILITY” (SAPPORO MEDICAL UNIVERSITY, priority 2005, published 2009)

B1: recombinant protein of GDNF: recombinant glial cell line-derived neurotrophic factor (protein, UniProt P39905 78-211, looked up)
Glial cell line-derived …: SPDKQMAVLPRRERNRQAAAANPENSRGKGRRGQRGKNRGCVLTAIHLNVTDLGLGYETKEELIFRYCSGSCDAAETTYDKILKNLSRNRRLVSDKVGQACCRPIAFDDDLSFLDDNLVYHILRKHSAKRCGCI

Tests used:
[1] = test system: GDNF; assay: Suppression of GDNF expression by AGE-2 in human astrocyte (RT-PCR, ELISA); format: cell-based; conditions: p<0.001; for inhibition of the effect of AGE-2 to suppress the expression of GDNF, protein level: combination with AGE-2, ELISA of cell culture medium; for inhibition of the effect of AGE-2 to suppress the expression of GDNF, mRNA level: combination with AGE-2, RT-PCR
Experimental: Human astrocyte was treated with AGE-2 alone, or combinations of AGE-2 with atRA or Am580, and alterations in the expression of GDNF was evaluated in the same manner as FIG. 6.

[2] = test system: MDCK (Madin Darby Canine Kidney) cell; assay: Barrier function evaluation with MDCK cells, same parameters as Example 2; format: cell-based, dog
Source text: The vascular endothelial cell used in Example 2 is the primary culture strain obtained from the bovine brain, which has an advantage of capable of reproducing in vitro conditions more similar to those in a living body. However, unlike those called as cell lines, the strain of the primary cultured cell has limited number of division and a slow division rate, and therefore has an aspect of unsuitability for an experimental system that requires repeated examination. Accordingly, MDCK (Madin Darby Canine Kidney) cell as dog-derived kidney tubule cell (easily available commercially) was used, which cell is optimum for the evaluation of the barrier function and has been experienced of being already used in variety of experimental systems. The effect of synthetic retinoids was evaluated with the same parameter as those in Example 2. The experimental groups in FIG. 5 are as follows:
1. Non-treated group 2. atRA (RARα agonist) 3. Am80 (RARα agonist) 4. Am580 (RARα agonist)
In FIG. 5, the non-treated group (control) is defined as “1”, and relative differences thereto are shown as graphs.

[3] = test system: GDNF; assay: GDNF expression in primary cultured human astrocyte; format: cell-based; conditions: for GDNP expression / suppression of the vascular permeability (expression of GDNF divided by expression of VEGF): human astrocyte; for GDNP expression: FIG. 6; for suppression of the vascular permeability (expression of GDNF divided by expression of VEGF): non-treated group as inner control; for expression of GDNF mRNA: preliminary experiment, see FIG. 6
Experimental: (§1) In Examples 1 and 2, U373MG cells, a cell line having the characteristic as astrocyte, was used for convenience of the experiment. […] Therefore, studies were made to evaluate whether or not the enhancement of the expression of GDNF by the retinoid can be observed also in the system using human astrocyte. The astrocyte used in the experiment was a primary cultured cell isolated from the human brain, and was purchased from Cambrex Corporation, USA. This means provides an advantage that observation is achievable under environments closer to those in vivo.
Whilst, the expression of VRGF that is a strong vascular hyperpermeability factor was suppressed in the treated groups. The level of suppression of the vascular permeability in the treated groups is represented by a relative amount of the two factors that define permeability, specifically, a value obtained by dividing a value of the expression of GDNF that is the permeability-suppressing factor by a value of the expression of VEGF that is a hyperpermeability factor. In this case, a value of the expression of each of non-treated groups is used as an inner control, and an amount of the expression of the treated groups is calculated from the concentration on the gel and the area. […] The experimental groups in FIG. 6 are as follows, and the upper figure indicates the photographs of the gel, the lower figure indicates visualized differences of relative amounts obtained by the quantification thereof.

[4] = test system: VEGF; assay: VEGF expression in primary cultured human astrocyte; format: cell-based; conditions: treated groups, FIG. 6
Experimental: as §1
Whilst, the expression of VRGF that is a strong vascular hyperpermeability factor was suppressed in the treated groups. […] In this case, a value of the expression of each of non-treated groups is used as an inner control, and an amount of the expression of the treated groups is calculated from the concentration on the gel and the area. […] The experimental groups in FIG. 6 are as follows, and the upper figure indicates the photographs of the gel, the lower figure indicates visualized differences of relative amounts obtained by the quantification thereof.

[5] = test system: diabetic model mice; assay: Streptozotocin-induced diabetic model mice, FITC dextran in the eyes as index of vascular permeability; format: in vivo, mouse; conditions: atRA 1 mg/kg intraperitoneally
Experimental: Male 5 to 6 week-old C57/BL6 mice were administered with streptozotocin and diabetes was chemically induce in these model mice. To these diabetic model mice, retinoids were administered to evaluate clinical effectiveness. For reference, mice without the diabetic induction were used as control.
Experimental groups: 1. Control (group of non-induction of diabetes) 2. Diabetic group (non-treated group) 3. Diabetic group (atRA-treated group) 4. Diabetic group (Am580-treated group) 5. Diabetic group (Am80-treated group)
The onset of diabetes was confirmed by periodical measurement of glucose in urine, and after all the mice became strongly positive, by measurement of blood glucose. The mice of 4 to 6 week-pathological period with diabetes were used. […] Mice were divided into 4 groups as mentioned above for the treatment. The treatment were performed by administrating atRA (1 mg/kg), Am580 (3.75 mg/kg), and Am80 (4.5 mg/kg) intraperitoneally every other day for 4 days. […] As the index of the permeability, the FITC in the eyes was measured, and the value was standardized with the FITC amount contained in cardiac blood to minimize a potential difference between each amount of dose.
As biological parameters, blood sugar (BS) and urine sugar (US) were evaluated.

[6] = test system: vascular endothelial cells; assay: Direct treatment of vascular endothelial cells in the absence of astrocyte; format: cell-based; conditions: FIG. 8
Source text: It is known that the vascular endothelial cells also have retinoid receptors, and accordingly, there remains a possibility that atRA contained in the cell culture medium effected directly on the vascular endothelial cells during the co-culture. However, when a recombinant protein of GDNF was directly effected on the vascular endothelial cells in the absence of astrocyte, the increase in TER and the decrease in the permeability were induced (*p<0.05), whilst these changes were not observed when the cells were treated with atRA (FIG. 8).

[7] = test system: vascular endothelial cells obtained from the bovine brain; assay: Barrier function of vascular endothelial cells co-cultured with atRA-treated U373MG cells (transwell double chamber); format: cell-based; conditions: p<0.05
Experimental: In order to evaluate whether or not the alteration induces physiological reactions, co-cultivation with vascular endothelial was performed. […] As can be understood from FIG. 3, the […] cells (astrocytes) were grown as effector cells in the outer chamber, and treated with atRA and cultured for additional 24 hours. In the inner chamber separately prepared, vascular endothelial cells obtained from the bovine brain were cultured to prepare beforehand for forming a dense single layer cell-sheet.
The outer chamber with U373MG cells and the inner chamber with the vascular endothelial cells were jointed to start the co-culture for evaluation of the barrier function that is a tight-function of the vascular endothelial cells. […] In this experiment, as functional alterations of the vascular endothelial cells by the influence of the astrocyte, the difference in electrical resistance inside and outside of the vascular endothelial cells, and the mobility to the outer chamber of the labeled substance (^14C-labeled) added in the inner chamber were evaluated as indexes as the vascular permeability. The activity of the transferred radioactive substance is indicated as dpm (disintegrations per minutes).

[8] = test system: GDNF; assay: GDNF expression by atRA treatment in human glioma cells (quantitative RT-PCR, Southern blot); format: cell-based; conditions: U373MG cells
Experimental: U373MG cells were cultured in a relatively dense state, and were treated with 10 nM or 100 nM of all-trans retinoic acid (atRA). mRNA was extracted from the cells and subjected to quantitative RT-PCR, and then changes in the gene expression were analyzed and quantified by the Southern blot method. Reverse transcription was performed by using a kit manufactured by Invitrogen. The reagents were prepared according to the manufacturer's instructions, and reacted at 42° C. for 30 minutes. The product was used for PCR after denaturation of reverse transcriptase at 96° C. for 5 minutes. For the PCR reaction, each reagent manufactured by TaKaRa was prepared by mixing according to the manufacturer's instructions, and the following reactions were performed:
1) 94° C., 30 seconds 2) 94° C., 15 seconds 3) 52° C., 15 seconds 4) 72° C., 30 seconds 5) repeat of the reactions from 2) to 4) for 32 times 6) 72° C., 7 minutes
The final reaction product was used for the Southern blot test.

[9] = relative to non-treated group, p<0.05
[10] = 14C-labeled, co-culture with atRA-treated U373MG cells

Molecule | inhibition of the effect of AGE-2 to suppress the expression of GDNF, protein level [1] | inhibition of the effect of AGE-2 to suppress the expression of GDNF, mRNA level [1] | TER ([2]; relative to non-treated group defined as 1, p<0.05) | intercellular permeability (inulin) [2, 9] | intercellular permeability (mannitol) [2, 9] | GDNP expression [3] | suppression of the vascular permeability (expression of GDNF divided by expression of VEGF) [3] | expression of GDNF mRNA [3] | expression of VRGF [4] | effectiveness on vascular hyperpermeability (amount of FITC in the eyes) ([5]; middle stage diabetic group, Am580 3.75 mg/kg) | TER [6] | permeability [6] | permeability of inulin (5 kDa) [7, 10] | permeability of mannitol (182 Da) [7, 10] | TER (transepithelial electrical resistance), barrier function of the vascular endothelial cells ([7]; co-culture with U373MG cells treated with atRA) | time at which the increase in GDNF expression reached a plateau level [8] | GDNF mRNA level expression ([8]; 10 nM or 100 nM, after 3 hours and 24 hours) | urine sugar (US) ([5]; diabetic mice, compared to the non-treated group)
CC1(C)CCC(C)(C)c2cc(C(=O)Nc3ccc(C(=O)O)cc3)ccc21 [Am580, 4-[(5,6,7,8-tetrahydro-5,5,8,8-tetramethyl-2-naphthalenyl)carboxamide]benzoic acid] | strongly inhibited | strongly inhibited | more effective than atRA, and much effective than Am80 | most effectively suppressed | most effectively suppressed | significantly increases | about three-fold | induced the expression of GDNF mRNA in a dose-dependent and time-dependent manner | suppressed | higher effectiveness than atRA | – | – | – | – | – | – | – | –
CC1=C(/C=C/C(C)=C/C=C/C(C)=C/C(=O)O)C(C)(C)CCC1 [atRA, all-trans retinoic acid] | strongly inhibited | strongly inhibited | – | – | – | significantly increases | about three-fold | induced the expression of GDNF mRNA in a dose-dependent and time-dependent manner | suppressed | – | not observed | not observed | significantly suppressed | significantly suppressed | enhanced | about 3 hours | increased in relation to the elevated concentration | Significantly lower
B1 | – | – | – | – | – | – | – | – | – | – | increase | decrease | – | – | – | – | – | –
